The results in this text go back to patent US20220324835A1 (Nurix Therapeutics, Inc., priority 2018, published 2022).

One assay deals with Cbl-b (residues 36-427) (Homo sapiens, UniProt Q13191). Put plainly: Cbl-b binding assay (SPR, Biacore T200). To be noted: 20° C., 1:1 binding model. The method, boiled down:
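NeutrAvidin capture chip, 20° C; 50 s injections at 50 μl/min, 90-180 s dissociation; 0.3 M NaCl regeneration. Asterisked column: 50 mM NaCl buffer and 30 nM Src kinase in place of 100 mM NaCl and 60 nM Src kinase. 1:1 fit.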
Background: Surface plasmon resonance follows binding to a sensor surface in real time, without labels.

Assay [1] has as its target T1, Cbl-b (Homo sapiens, UniProt Q13191). Description: Cbl-b activity assay (Cbl-b inhibition assay), TR-FRET of Cbl-b interaction with UbcH5B-Ub. The settings on record: for pIC50: assay buffer with 100 mM NaCl, 60 nM Src kinase, read-out: Cbl-b activity IC50. In kind it is biochemical. The method, boiled down: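 Compound-treated Cbl-b was incubated 1.5 h with Src kinase (60 nM final; 30 nM for asterisked values, which also used 50 mM instead of 100 mM NaCl), 1 mM ATP and 5 mM MgCl2. Binding to fluorescent Ub-loaded UbcH5B (C85K mutant) was then read by TR-FRET after 1 h more.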

Assay [2] addresses T1, Cbl-b. Description: Cbl-b inhibition assay (Cbl-b activity assay, FRET, Biological Example 1; 100 mM NaCl, 60 nM Src kinase). In kind it is biochemical. The settings on record: upper bound stated in text lists; read-out: IC50 values in the Cbl-b inhibition assay of Biological Example 1. The method, boiled down:
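TR-FRET assay using N-terminal biotinylated Avi-tagged Cbl-b bound to streptavidin-terbium, Src kinase for Cbl-b phosphorylation, and UbcH5B irreversibly conjugated to Bodipy-Fluorescein-ubiquitin. Phosphorylated Cbl-b binds UbcH5B-Ub, bringing the fluorophores together; inhibition is read as loss of FRET signal.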

pIC50, pKd: −log10 of the molar value. Bounds are passed on as bounds.

T1 sequence (Q13191 36-427): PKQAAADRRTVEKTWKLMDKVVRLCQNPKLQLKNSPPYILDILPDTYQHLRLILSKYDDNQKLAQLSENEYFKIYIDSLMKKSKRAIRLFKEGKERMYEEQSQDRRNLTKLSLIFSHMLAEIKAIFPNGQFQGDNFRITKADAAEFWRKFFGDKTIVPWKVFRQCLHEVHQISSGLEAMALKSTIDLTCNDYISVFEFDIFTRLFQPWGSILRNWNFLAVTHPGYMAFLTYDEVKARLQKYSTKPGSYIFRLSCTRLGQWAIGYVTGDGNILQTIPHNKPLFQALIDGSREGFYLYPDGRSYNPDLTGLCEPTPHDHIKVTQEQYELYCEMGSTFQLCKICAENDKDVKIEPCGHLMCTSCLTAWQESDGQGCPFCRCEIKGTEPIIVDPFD
Chain of Cbl-b (residues 36-427) (Q13191 36-427): as above

The term pKd denotes the negative decadic logarithm of the Kd, by convention in mol/L. The IC50 is the concentration at which inhibition is half-maximal. A word on the pIC50: it is −log10 of the IC50, conventionally taken in molar units. On Cbl-b (residues 36-427), `CC(Sc1nncn1C)c1cccc(N2Cc3ccc(Cl)cc3C2=O)c1` (stereo not shown) [Compound 163, 6-chloro-2-[3-[1-[(4-methyl-1,2,4-triazol-3-yl)sulfanyl]ethyl]phenyl]isoindolin-1-one] had a pKd of 5.00 to 5.52. In addition, at Cbl-b [1] (* assay buffer containing 50 mM NaCl instead of 100 mM NaCl and 30 nM Src kinase instead of 60 nM, read-out: Cbl-b activity IC50 (μM)*), the half-maximal inhibitory concentration (IC50) fell in the range of 3 to 10 µM. The values for the pIC50 on Cbl-b [1] and at Cbl-b [2] were 5.00 to 5.52 and at least 5.00, respectively.
Turning to `C[C@H](Sc1nncn1C)c1cccc(N2Cc3cc(Cl)ccc3C2=O)c1` [Compound 164, (S)-5-chloro-2-(3-(1-((4-methyl-4H-1,2,4-triazol-3-yl)thio)ethyl)phenyl)isoindolin-1-one], the pKd on Cbl-b (residues 36-427) was 5.52 to 6.00. Also, the values for the pIC50 at Cbl-b [1] and on Cbl-b [2] were 6.00 to 6.52 and at least 6.00, respectively.
The molecule `C[C@@H](Sc1nncn1C)c1cccc(N2Cc3c(cccc3C(F)(F)F)C2=O)c1` [Compound 166b, (R)-2-(3-(1-(4-methyl-4H-1,2,4-triazol-3-ylthio)ethyl)phenyl)-4-(trifluoromethyl)isoindolin-1-one] gave a pKd at Cbl-b (residues 36-427) of 5.00 to 5.52. Further, the pIC50 was 5.52 to 6.00 on Cbl-b [1] and at least 5.00 at Cbl-b [2].
`C[C@@H](Sc1nncn1C)c1cc(F)cc(N2Cc3c(cccc3C(F)(F)F)C2=O)c1` [Compound 168b, 2-[3-fluoro-5-[(1R)-1-[(4-methyl-1,2,4-triazol-3-yl)sulfanyl]ethyl]phenyl]-4-(trifluoromethyl)isoindolin-1-one] showed a pKd at Cbl-b (residues 36-427) of 5.52 to 6.00. Further, the pIC50 at Cbl-b [1] was 5.52 to 6.00; at Cbl-b [2], at least 5.00.
For the molecule `C[C@H](Sc1nncn1C)c1ccc(F)c(N2Cc3c(cccc3C(F)(F)F)C2=O)c1` [Compound 169, 2-[2-fluoro-5-[(1S)-1-[(4-methyl-1,2,4-triazol-3-yl)sulfanyl]ethyl]phenyl]-4-(trifluoromethyl)isoindolin-1-one], the pKd on Cbl-b (residues 36-427) was 5.52 to 6.00. Besides, the pIC50 was 5.52 to 6.00 on Cbl-b [1] and at least 5.00 on Cbl-b [2].
`C[C@@H](Sc1nncn1C)c1ccnc(N2Cc3c(cccc3C(F)(F)F)C2=O)c1` [Compound 172b, (R)-2-(4-(1-((4-methyl-4H-1,2,4-triazol-3-yl)thio)ethyl)pyridin-2-yl)-4-(trifluoromethyl)isoindolin-1-one] had a pKd on Cbl-b (residues 36-427) below 5.00. In addition, the pIC50 was 5.00 to 5.52 on Cbl-b [1] and at least 5.00 at Cbl-b [2].
In the case of `CC(Sc1nncn1C)c1cc(N)nc(N2Cc3c(cccc3C(F)(F)F)C2=O)c1` (stereo not shown) [Compound 175, 2-[6-amino-4-[1-[(4-methyl-1,2,4-triazol-3-yl)sulfanyl]ethyl]-2-pyridyl]-4-(trifluoromethyl)isoindolin-1-one], the pKd on Cbl-b (residues 36-427) was 5.00 to 5.52. The negative-log IC50 (pIC50) at Cbl-b [1] is 5.00 to 5.52; on Cbl-b [2], at least 5.00.
Regarding `CC(CO)Nc1cc(C(C)Sc2nncn2C)cc(N2Cc3c(cccc3C(F)(F)F)C2=O)n1` (stereo not shown) [Compound 176, 2-[6-[(2-hydroxy-1-methyl-ethyl)amino]-4-[1-[(4-methyl-1,2,4-triazol-3-yl)sulfanyl]ethyl]-2-pyridyl]-4-(trifluoromethyl)isoindolin-1-one], at Cbl-b (residues 36-427), the pKd was 5.52 to 6.00. The pIC50 on Cbl-b [1] was 6.00 to 6.52; on Cbl-b [2], at least 6.00.
Consider `CC(Sc1nncn1C)c1cc(NC[C@H](C)O)nc(N2Cc3c(cccc3C(F)(F)F)C2=O)c1` (stereo partly drawn) [Compound 177, 2-[6-[[(2S)-2-hydroxypropyl]amino]-4-[1-[(4-methyl-1,2,4-triazol-3-yl)sulfanyl]ethyl]-2-pyridyl]-4-(trifluoromethyl)iso-indolin-1-one], for which the pKd on Cbl-b (residues 36-427) is 5.00 to 5.52. Further, the figures for the pIC50 on Cbl-b [1] and on Cbl-b [2] were 5.00 to 5.52 and at least 5.00, respectively.
Regarding `CCNc1cc(C(C)Sc2nncn2C)cc(N2Cc3c(cccc3C(F)(F)F)C2=O)n1` (stereo not shown) [Compound 178, 2-[6-(ethylamino)-4-[1-[(4-methyl-1,2,4-triazol-3-yl)sulfanyl]ethyl]-2-pyridyl]-4-(trifluoromethyl)isoindolin-1-one], the pKd at Cbl-b (residues 36-427) was 6.00 to 6.52. Also, the pIC50 on Cbl-b [1] is 6.00 to 6.52; at Cbl-b [2], at least 6.00.
Turning to `CC(Sc1nncn1C)c1cc(NC2CCOC2)nc(N2Cc3c(cccc3C(F)(F)F)C2=O)c1` (stereo not shown) [Compound 179, 2-(4-(1-((4-methyl-4H-1,2,4-triazol-3-yl)thio)ethyl)-6-((tetrahydrofuran-3-yl)amino)pyridin-2-yl)-4-(trifluoromethyl)isoindolin-1-one], the pKd at Cbl-b (residues 36-427) is 5.00 to 5.52. For the same molecule, the pIC50 at Cbl-b [1] was 5.00 to 5.52; at Cbl-b [2] it was at least 5.00.
On Cbl-b (residues 36-427), `CNc1cc(C(C)Sc2nncn2C)cc(N2Cc3c(cccc3C(F)(F)F)C2=O)n1` (stereo not shown) [Compound 180, 2-[6-(methylamino)-4-[1-[(4-methyl-1,2,4-triazol-3-yl)sulfanyl]ethyl]-2-pyridyl]-4-(trifluoromethyl)isoindolin-1-one] showed a pKd of 5.52 to 6.00. The pIC50 on Cbl-b [1] was 5.52 to 6.00; on Cbl-b [2], at least 5.00.
On Cbl-b (residues 36-427), `Cn1cnnc1SC(CCO)c1cccc(NC(=O)c2cccc(C(F)(F)F)n2)c1` (stereo not shown) [Compound 181, N-(3-(3-hydroxy-1-((4-methyl-4H-1,2,4-triazol-3-yl)thio)propyl)phenyl)-6-(trifluoromethyl)picolinamide] showed a pKd of 5.00 to 5.52. Further, the values for the pIC50 at Cbl-b [1] and at Cbl-b [2] were 5.52 to 6.00 and at least 5.00, respectively.
The like results for `C[C@H](Cc1nncn1C)c1cccc(NC(=O)c2cc3ccccc3cn2)c1` [Compound 182, (R)-N-(3-(1-(4-methyl-4H-1,2,4-triazol-3-yl)propan-2-yl)phenyl)isoquinoline-3-carboxamide] were, in that order, 6.00 to 6.52, 6.00 to 6.52 and at least 6.30.
`C[C@@H](Cc1nncn1C)c1cccc(NC(=O)c2cccc(C(F)(F)F)n2)c1` [Compound 183b, (S)-N-(3-(1-(4-methyl-4H-1,2,4-triazol-3-yl)propan-2-yl)phenyl)-6-(trifluoromethyl)picolinamide] gave a pKd at Cbl-b (residues 36-427) of 5.00 to 5.52. Besides, the pIC50 at Cbl-b [1] is 6.52 to 7.00; on Cbl-b [2], at least 5.00.
Molecule `C[C@H](Cc1nncn1C)c1cccc(NC(=O)c2cc(C(F)(F)F)ccn2)c1` [Compound 184, (R)-N-(3-(1-(4-methyl-4H-1,2,4-triazol-3-yl)propan-2-yl)phenyl)-4-(trifluoromethyl)picolinamide] showed a pKd at Cbl-b (residues 36-427) of 5.00 to 5.52. Further, the values for the pIC50 at Cbl-b [1] and on Cbl-b [2] were 5.52 to 6.00 and at least 5.00, respectively.
On to `C[C@@H](Cc1nncn1C)c1cccc(NC(=O)c2cc(S(C)(=O)=O)cc(C3CC3)n2)c1` [Compound 198b], for which the negative-log Kd (pKd) at Cbl-b (residues 36-427) was 5.00 to 5.52. The pIC50 is 5.00 to 5.52 on Cbl-b [1] and at least 5.00 on Cbl-b [2].
At Cbl-b (residues 36-427), `C[C@H](Cc1nncn1C)c1cccc(NC(=O)c2cc(N[C@@H]3CC[C@H](O)C3)ccn2)c1` [Compound 204, 4-((1R,3S)-3-hydroxycyclopentylamino)-N-(3-((R)-1-(4-methyl-4H-1,2,4-triazol-3-yl)propan-2-yl)phenyl)picolinamide] had a pKd of 5.52 to 6.00. Further, the pIC50 is 5.52 to 6.00 on Cbl-b [1] and at least 5.00 on Cbl-b [2].
Regarding `C[C@H](Cc1nncn1C)c1cccc(NC(=O)c2cc(O[C@@H]3CC[C@H](O)C3)ccn2)c1` [Compound 207, 4-((1R,3S)-3-hydroxycyclopentyloxy)-N-(3-((R)-1-(4-methyl-4H-1,2,4-triazol-3-yl)propan-2-yl)phenyl)picolinamide], the pKd at Cbl-b (residues 36-427) was 5.52 to 6.00. Besides, the pIC50 is 6.00 to 6.52 at Cbl-b [1] and at least 6.00 at Cbl-b [2].
Molecule `C[C@H](Cc1nncn1C)c1cccc(NC(=O)c2cc(N[C@H]3CC[C@@H](O)C3)ccn2)c1` [Compound 208, cis-4-(3-hydroxycyclopentylamino)-N-(3-((R)-1-(4-methyl-4H-1,2,4-triazol-3-yl)propan-2-yl)phenyl)picolinamide] had a pKd at Cbl-b (residues 36-427) of 5.00 to 5.52. Besides, the results for the pIC50 at Cbl-b [1] and on Cbl-b [2] were 6.00 to 6.52 and at least 6.00, respectively.
At Cbl-b (residues 36-427), `C[C@@H](Cc1nncn1C)c1cccc(NC(=O)c2cc3cc(N4CCN(C)C(=O)C4)ccc3cn2)c1` [Compound 210, (S)-6-(4-methyl-3-oxopiperazin-1-yl)-N-(3-(1-(4-methyl-4H-1,2,4-triazol-3-yl)propan-2-yl)phenyl)isoquinoline-3-carboxamide 2,2,2-trifluoroacetate] showed a pKd of 5.00 to 5.52. The pIC50 at Cbl-b [1] was 5.00 to 5.52; on Cbl-b [2], at least 5.00.
Consider `C[C@H](Cc1nncn1C)c1cccc(NC(=O)c2cc(C(=O)N3C[C@@H](O)C[C@@H]3C)ccn2)c1` [Compound 223, 4-((2S,4S)-4-hydroxy-2-methylpyrrolidine-1-carbonyl)-N-(3-((R)-1-(4-methyl-4H-1,2,4-triazol-3-yl)propan-2-yl)phenyl)picolinamide], for which the pKd on Cbl-b (residues 36-427) is 5.00 to 5.52. For the same molecule, the pIC50 was 5.00 to 5.52 on Cbl-b [1] and at least 5.00 on Cbl-b [2].
`C[C@H](Cc1nncn1C)c1cccc(NC(=O)c2cc(C(=O)N3CC(S(C)(=O)=O)C3)ccn2)c1` [Compound 225, 4-(3-methanesulfonylazetidine-1-carbonyl)-N-[3-[(2R)-1-(4-methyl-4H-1,2,4-triazol-3-yl)propan-2-yl]phenyl]pyridine-2-carboxamide]: the pKd on Cbl-b (residues 36-427) is 5.00 to 5.52. For the same molecule, the pIC50 at Cbl-b [1] is 5.52 to 6.00; at Cbl-b [2], at least 5.00.
